# According to the supplement of paper PMC13380429:
# Counter-ions that a name gives are not always drawn.
# Key:
# Conditions in all cases: 72 h
# Caco-2 [1] = assay: cell viability relative to DMSO; higher = less toxic
# Calu-3 [2] = assay: as above
# HepG2 [3] = assay: as above
# U2OS [4] = assay: as above
# Vero E6 [5] = assay: as above
# Caco-2 [6] = assay: relative viability EC50 (midpoint between 100% and the lowest measured viability); higher = less toxic
# Calu-3 [7] = assay: as above
# HepG2 [8] = assay: as above
# U2OS [9] = assay: as above
# Vero E6 [10] = assay: as above
# Caco-2 [11] = assay: drug sensitivity score (DSS) for viability; higher = more toxic; extreme values may be limits of the assay
# Calu-3 [12] = assay: as above
# HepG2 [13] = assay: as above
# U2OS [14] = assay: as above
# Vero E6 [15] = assay: as above
SMILES,cell viability (Caco-2 [1]; 1 nM) [%],cell viability (Caco-2 [1]; 10 nM) [%],cell viability (Caco-2 [1]; 100 nM) [%],cell viability (Caco-2 [1]; 1000 nM) [%],cell viability (Caco-2 [1]; 10000 nM) [%],cell viability (Calu-3 [2]; 1 nM) [%],cell viability (Calu-3 [2]; 10 nM) [%],cell viability (Calu-3 [2]; 100 nM) [%],cell viability (Calu-3 [2]; 1000 nM) [%],cell viability (Calu-3 [2]; 10000 nM) [%],cell viability (HepG2 [3]; 1 nM) [%],cell viability (HepG2 [3]; 10 nM) [%],cell viability (HepG2 [3]; 100 nM) [%],cell viability (HepG2 [3]; 1000 nM) [%],cell viability (HepG2 [3]; 10000 nM) [%],cell viability (U2OS [4]; 1 nM) [%],cell viability (U2OS [4]; 10 nM) [%],cell viability (U2OS [4]; 100 nM) [%],cell viability (U2OS [4]; 1000 nM) [%],cell viability (U2OS [4]; 10000 nM) [%],cell viability (Vero E6 [5]; 1 nM) [%],cell viability (Vero E6 [5]; 10 nM) [%],cell viability (Vero E6 [5]; 100 nM) [%],cell viability (Vero E6 [5]; 1000 nM) [%],cell viability (Vero E6 [5]; 10000 nM) [%],relative viability EC50 (Caco-2 [6]) [µM],relative viability EC50 (Calu-3 [7]) [µM],relative viability EC50 (HepG2 [8]) [µM],relative viability EC50 (U2OS [9]) [µM],relative viability EC50 (Vero E6 [10]) [µM],drug sensitivity score (Caco-2 [11]),drug sensitivity score (Calu-3 [12]),drug sensitivity score (HepG2 [13]),drug sensitivity score (U2OS [14]),drug sensitivity score (Vero E6 [15])
CC1=NN(c2ccc(C(=O)O)cc2)C(=O)C1=Cc1ccc(-c2cc(C)c(C)cc2[N+](=O)[O-])o1 [C646],87.3,90.5,101,94,98.1,106,98.1,89.3,89.6,98.9,90,102,92.5,93.7,90.5,102,95.6,98.8,94.9,92.9,97.3,102,100,100,99,> 10,> 10,> 10,> 10,> 10,0,0.4,0,0,0
CCCC(C)(COC(N)=O)COC(=O)NC(C)C (configuration not stated) [CARISOPRODOL],96.1,103,97.6,101,104,108,88.2,93.2,85.7,98.1,–,–,–,–,–,102,97.7,101,102,104,106,101,98.8,105,101,> 10,> 10,–,> 10,> 10,0,0,–,0,0
N#Cc1cc(-c2n[nH]c(-c3ccncc3)n2)ccn1 [topiroxostat],98.2,92.9,89.6,95.9,107,103,87.4,107,95.1,118,102,91.1,98.8,100,96.1,–,–,–,–,–,102,103,101,102,99.8,> 10,> 10,> 10,–,> 10,0,0,0,–,0
CC(=O)Nc1ccc(OC(C)=O)cc1 [diacetamate],91.8,103,94.7,101,111,99.1,99.7,99.7,101,84.9,114,98.5,110,101,105,–,–,–,–,–,96.1,96,94.3,84.8,101,> 10,> 10,> 10,–,> 10,0,0.2,0,–,0
CCCn1c(=O)[nH]c2nc(-c3ccc(S(=O)(=O)O)cc3)[nH]c2c1=O [PSB-1115],99.4,94.6,111,105,95.4,112,104,100,110,94.4,–,–,–,–,–,99.9,109,98.2,108,102,106,105,107,103,95.5,> 10,> 10,–,> 10,> 10,0,0,–,0,0
CCn1c(=O)c(-c2cc[nH]n2)cc2c(C)nc(N)nc21 [voxtalisib],102,96.7,93.5,86.5,42.9,95,91.9,91,71.9,32.6,108,106,101,88.5,35.4,99.3,97.3,97.9,93.1,60.3,104,104,91.2,80.8,33.5,1.61,1.17,1.84,–,1.55,5.2,6.8,5.4,3.1,6.1
CC[C@H]1OC(=O)C[C@@H](O)[C@H](C)[C@@H](O[C@@H]2O[C@H](C)[C@@H](O[C@H]3C[C@@](C)(O)[C@@H](O)[C@H](C)O3)[C@H](N(C)C)[C@H]2O)[C@@H](CC=O)C[C@@H](C)C(=O)/C=C/C(C)=C/[C@@H]1CO[C@@H]1O[C@H](C)[C@@H](O)[C@@H](OC)[C@H]1OC [TYLOSIN TARTRATE],101,96.4,109,63,23.4,104,108,104,91,74.6,99,101,95.2,94.8,40.7,102,97.3,96.9,56.6,39.9,102,102,98.7,95.2,18.9,1.03,–,2.44,0.566,2.7,8.9,2.1,4,8.7,5.2
CCc1[nH]c(=O)[nH]c1C(=O)c1ccncc1 [piroximone],96.4,95.2,88.7,99.4,94.6,103,110,99.3,95.2,89.3,–,–,–,–,–,93.5,103,94.6,102,94.1,99,94.6,96.8,93.3,94.6,> 10,> 10,–,> 10,> 10,0,0,–,0,0
CN(C)CC[C@H](CSc1ccccc1)Nc1ccc(S(=O)(=O)NC(=O)c2ccc(N3CCN(Cc4ccccc4-c4ccc(Cl)cc4)CC3)cc2)cc1[N+](=O)[O-] [ABT-737],104,92.4,105,101,83.8,115,99.1,114,95.2,39.3,109,111,104,95.8,93,–,–,–,–,–,97.2,98.6,95.3,96,95.1,> 10,2.52,> 10,–,> 10,0.3,4,0,–,0
COc1cc2c(cc1OC)-c1cc3nc4ccccc4nc3n1C(C)(C)C2,97.9,103,106,99.1,89.1,104,103,99.8,95.2,97.3,98.7,83.6,89.7,95.1,76.2,–,–,–,–,–,108,102,104,92.2,107,> 10,> 10,> 10,–,> 10,0,0,1.8,–,0
O=C(O)CCCN1CCC(O[C@@H](c2ccc(Cl)cc2)c2ccccn2)CC1 [bepotastine],91.3,92.1,99.4,93.4,107,97,106,94.2,93.8,113,98.7,113,99,102,113,–,–,–,–,–,93.2,98.3,90.2,95.8,105,> 10,> 10,> 10,–,> 10,0,0,0,–,0
O=C(OC[C@H]1O[C@@H](OC(=O)c2cc(O)c(O)c(OC(=O)c3cc(O)c(O)c(O)c3)c2)[C@H](OC(=O)c2cc(O)c(O)c(OC(=O)c3cc(O)c(O)c(O)c3)c2)[C@@H](OC(=O)c2cc(O)c(O)c(OC(=O)c3cc(O)c(O)c(O)c3)c2)[C@@H]1OC(=O)c1cc(O)c(O)c(OC(=O)c2cc(O)c(O)c(O)c2)c1)c1cc(O)c(O)c(OC(=O)c2cc(O)c(O)c(O)c2)c1 [tannic-acid],99.6,93.5,90.5,99.1,43.5,94.4,99.9,98.6,108,78.8,108,94.6,104,104,74.2,97.7,98.5,93.7,97.8,53.1,103,109,102,77.4,48.8,3.04,> 10,–,–,1.1,3.2,0.4,0.8,2.7,5.7
COc1cc(C(=O)NCCCCCC(=O)O)cc(OC)c1OC [capobenic-acid],110,111,96.7,80.2,93.5,96.3,94.9,94.5,104,98.6,–,–,–,–,–,97,103,94.7,111,94,103,101,99,101,94.6,> 10,> 10,–,> 10,> 10,3.1,0,–,0,0
COC(=O)[C@H](NC(=O)c1cc(-c2ccccc2)nc2ccccc12)c1ccccc1,110,94.9,106,104,109,104,93,101,102,103,91.4,99.6,96.4,89.6,103,–,–,–,–,–,92.6,91.3,91.5,92.7,100,> 10,> 10,> 10,–,> 10,0,0,0,–,0
CC(C)N(CCCCOCC(=O)NS(C)(=O)=O)c1cnc(-c2ccccc2)c(-c2ccccc2)n1 [selexipag],110,103,94.5,107,105,95,105,97.3,110,105,–,–,–,–,–,–,–,–,–,–,100,102,93,98.4,93.2,> 10,> 10,–,–,> 10,0,0,–,–,0
